# Test results reported in US7579006B2, “Method of treating immune pathologies with low dose estrogen” (Oregon Health and Science University, priority 2000, dated 2009).
# Experiments:
# [1] = system: female SJL mice; experiment: EAE induced with PLP 139-151 in female SJL mice (clinical scores, spinal cord histopathology); assay type: in vivo; details: for Demyelinated foci/section / Inflammatory foci/section: spinal cord at peak of disease
# [2] = system: IFN-γ KO mice; experiment: EAE induced with MOG 35-55 in IFN-γ KO mice (clinical, histopathology); assay type: in vivo; details: 2.5 mg pellet
# Protocol: (§1) Estrogen treatment. Sixty-day release pellets containing 2.5 mg of 17β-estradiol (E2) or vehicle were implanted subcutaneously (s.c) in the scapular region behind the neck using a 12-gauge trochar as described by the manufacturer (Innovative Research of America, Sarasota, Fla.). The mice were implanted one week prior to immunization with MOG 35-55. The concentration of E2 expected in the serum is between 1,500-2,000 pg/ml, which is approximately 5 times less than the levels found during pregnancy.
# (§2) Induction of EAE. C57BL/6 and cytokine deficient mice were inoculated s.c in the flanks with 0.2 ml of an emulsion containing 200 μg of MOG 35-55 in saline and an equal volume of complete Freund's Adjuvant (CFA) containing 400 μg of Mycobacterium tuberculosis H37RA (Difco Laboratories, Detroit, Mich.). Disease induction required i.v. administration of pertussis toxin on the day of immunization (25 ng/mouse) and 2 days later (67 ng/mouse). The mice were assessed daily for clinical signs of EAE according to the 7 point scale described in Example I.
# (§3) Histopathology. Histopathologic assessment of spinal column section was performed essentially as described in Example I, except that sections were stained with either luxol fast blue-periodic acid schiff-hematoxylin or silver nitrate prior to analysis.
# (§4) Statistical analysis. Significant differences in incidence and mortality between untreated and E2 treated mice were assessed by Chi-square analysis. Difference in onset was determined using the two-tailed Student t test. Differences in peak score and cumulative disease index (CDI) were assessed by the Mann-Whitney test. Statistical significance of the frequency of cytokine secreting cells was analyzed using Student's t test for comparisons of two means. Differences in the expression of chemokine and cytokine mRNA were also determined using the Student t test. Values of p<0.05 were considered significant.
# [3] = system: draining lymph node (LN) cells; experiment: MOG 35-55 stimulated proliferation of draining lymph node cells; assay type: in vivo; details: WT and cytokine deficient mice, 2.5 mg pellet
# Protocol: Proliferation assay. Proliferation assays were performed on draining lymph node (DLN) and spleen (SP) cells essentially as described in Examples I and II, using MOG 35-55 as the test antigen. […] Proliferation of draining lymph node (LN) cells from either untreated or E2 treated mice was measured to determine if E2 could alter the ability of T lymphocytes to recognize and respond to the immunizing antigen. LN cells were isolated from three representative mice for each group and the cells pooled prior to stimulation with MOG 35-55 for 72 hr.
# [4] = system: IL-4 KO mice; experiment: EAE induced with MOG 35-55 in IL-4 KO mice (clinical, histopathology); assay type: in vivo; details: 2.5 mg pellet
# Protocol: as §1, §2, §3, §4
# [5] = system: DLN cells; experiment: PLP 139-151 induced cytokine production by DLN cells (ELISA); assay type: in vivo, mice; details: 48-72 hours after PLP 139-151 stimulation
# Protocol: Cytokine detection by ELISA. DLN cells were cultured at 4×10^6/ml and stimulated with the appropriate antigen in 24 well culture plates. Cell culture supernatants were recovered between 48-72 hr and frozen at −70° C. until needed for the cytokine assay. Measurement of cytokines was performed by ELISA using cytokine specific capture and detection antibodies (Pharmingen). Standard curves for each assay were generated using recombinant mouse cytokines (Pharmingen), and the concentration of cytokines in the cell supernatants was determined by interpolation from the appropriate standard curve. IFN-γ, TNF-α and IL-12 were chosen as representative Th1 cytokines, while IL-4 and IL-10 were measured as representative Th2 cytokines.
# To determine if low dose estrogen therapy altered cytokine secretion patterns, DLN cells were prepared from individual mice at the peak of clinical EAE and cytokine levels were measured 48-72 hours after in vitro stimulation with PLP 139-151. IFN-γ, IL-12, and TNF-α were used as representative Th1 cytokines while IL-4, and IL-10 were used as representative Th2 cytokines. […] Despite the lack of statistical significance, the trend towards higher Th1 and lower Th2 cytokines points towards a subtle shift in the Th1/Th2 balance. The shift can be seen more clearly when the cytokine response of each individual mouse is plotted as a ratio of IFN-γ to IL-10 (FIG. 5C). There was a marked decrease in the frequency of high Th1 responder mice in the E2 and E3 treated groups when compared to placebo animals that approached significance (p=0.09 for the 5.0 mg E3 treated mice). Additionally, no informative trends were detected in IL-4 secretion (FIG. 5D), and TNF-α secretion was very often below the limits of detection for the assay (<31.25 pg/ml). Modest changes in cytokine responses induced by low dose estrogen therapy were also observed in the B10.PL model and were consistent with the data described for the SJL model.
# [6] = system: ovariectomized Tg female mice; experiment: EAE in ovariectomized BV8S2 Tg female mice; assay type: in vivo
# [7] = system: male SJL mice; experiment: EAE induced with PLP 139-151 in male SJL mice; assay type: in vivo
# [8] = 0.36 mg pellet, OVX Tg females (Example III)
compound,measurement,setting,value
C[C@]12CC[C@@H]3c4ccc(O)cc4CC[C@H]3[C@@H]1CC[C@@H]2O [17β-estradiol],CDI (cumulative disease index),[1]; 0.025 mg/pellet (diestrus),19.2 ± 10.0
same,Incidence,[1]; 0.025 mg/pellet (diestrus),15/18
same,Incidence (%),[1]; 0.025 mg/pellet (diestrus),(83%)
same,Onset,[1]; 0.025 mg/pellet (diestrus),15.8 ± 3.5 days
same,Peak (disease score),[1]; 0.025 mg/pellet (diestrus),3.6 ± 1.3
same,Relapse,[1]; 0.025 mg/pellet (diestrus),5/9
same,Relapse (%),[1]; 0.025 mg/pellet (diestrus),(56%)
same,CDI (cumulative disease index),[1]; 0.1 mg/pellet (diestrus),8.9 ± 3.4
same,Incidence,[1]; 0.1 mg/pellet (diestrus),12/19
same,Incidence (%),[1]; 0.1 mg/pellet (diestrus),(63%)
same,Onset,[1]; 0.1 mg/pellet (diestrus),14.5 ± 2.0 days
same,Peak (disease score),[1]; 0.1 mg/pellet (diestrus),2.0 ± 0.9
same,Relapse,[1]; 0.1 mg/pellet (diestrus),2/9
same,Relapse (%),[1]; 0.1 mg/pellet (diestrus),(22%)
same,Demyelinated foci/section,[1]; 0.36 mg pellet,0.5 ± 0.3 foci/section
same,Inflammatory foci/section,[1]; 0.36 mg pellet,1.3 ± 0.8 foci/section
same,CDI (cumulative disease index),[1]; 0.36 mg/pellet (estrus),9.8 ± 1.9
same,Incidence,[1]; 0.36 mg/pellet (estrus),15/19
same,Incidence (%),[1]; 0.36 mg/pellet (estrus),(79%)
same,Onset,[1]; 0.36 mg/pellet (estrus),15.1 ± 1.3 days
same,Peak (disease score),[1]; 0.36 mg/pellet (estrus),2.5 ± 0.6
same,Relapse,[1]; 0.36 mg/pellet (estrus),2/9
same,Relapse (%),[1]; 0.36 mg/pellet (estrus),(22%)
same,Demyelinated foci/section,[1]; 2.5 mg pellet,0.5 ± 0.4 foci/section
same,Inflammatory foci/section,[1]; 2.5 mg pellet,0.6 ± 0.8 foci/section
same,CDI (cumulative disease index),[1]; 2.5 mg/pellet (pregnancy),7.5 ± 7.9
same,Incidence,[1]; 2.5 mg/pellet (pregnancy),4/10
same,Incidence (%),[1]; 2.5 mg/pellet (pregnancy),(40%)
same,Onset,[1]; 2.5 mg/pellet (pregnancy),13.8 ± 0.5 days
same,Peak (disease score),[1]; 2.5 mg/pellet (pregnancy),2.0 ± 2.1
same,Relapse,[1]; 2.5 mg/pellet (pregnancy),0/4
same,Relapse (%),[1]; 2.5 mg/pellet (pregnancy),(0%)
same,comparison of E2 and E3 in incidence or severity of EAE,"[1]; Fisher exact test, same animal model",equally protective
same,Inflammatory foci/section,"[2]; IFN-γKO, spinal cord",0.0 ± 0.0 Foci/Section
same,CDI,[2]; IFNγ KO,19.3 ± 15.9
same,Incidence,[2]; IFNγ KO,8/10
same,Mortality,[2]; IFNγ KO,1/10
same,Onset,[2]; IFNγ KO,21.8 ± 2.7
same,Peak Score,[2]; IFNγ KO,4.5 ± 1.2
same,LN proliferation response to MOG 35-55,[3],no effect
same,CDI,[4]; IL-4 KO,18.4 ± 22.2
same,Incidence,[4]; IL-4 KO,8/11
same,Mortality,[4]; IL-4 KO,0/11
same,Onset,[4]; IL-4 KO,20.6 ± 4.9
same,Peak Score,[4]; IL-4 KO,4.4 ± 1.0
same,Inflammatory foci/section,"[4]; IL-4KO, spinal cord",0.0 ± 0.0 Foci/Section
same,IL-10 secretion by DLN cells,[5],modest increase
same,IL-12 secretion by DLN cells,[5],small decrease
same,secretion of IFN-γ by DLN cells,[5]; p>0.10,consistently lower
same,CDI,[6]; [8],40.0 ± 8.5
same,Incidence,[6]; [8],8/11
same,Onset,[6]; [8],16.5 ± 2.3
same,Peak,[6]; [8],2.6 ± 0.6
same,Average CDI (10-30),[6]; Ovx Tg females,40.0 ± 22.1^B
same,Incidence,[6]; Ovx Tg females,11/15
same,Mortality,[6]; Ovx Tg females,4/15
same,Onset,[6]; Ovx Tg females,13.6 ± 1.5
same,Peak,[6]; Ovx Tg females,3.5 ± 0.8
same,CDI,[7]; 0.36 mg/pellet,6.4 ± 5.1
same,Incidence,[7]; 0.36 mg/pellet,3/4
same,Incidence (%),[7]; 0.36 mg/pellet,75%
same,Onset,[7]; 0.36 mg/pellet,15.3 ± 3.2 days
same,Peak (disease score),[7]; 0.36 mg/pellet,2.1 ± 2.4
same,Incidence,[7]; 2.5 mg/pellet,0/4
same,Incidence (%),[7]; 2.5 mg/pellet,0%
